# US9844572B2, “Promotion of neuronal integration in neural stem cell grafts” (Life & Brain GmbH, priority 2009, dated 2017)
# “Also recorded” adds a separate entry of the source.
# Legend:
# [1] = test system: VEGF-induced angiogenesis; conditions: rabbit corneal model; cited from earlier work
# KDR = KDR (Homo sapiens, UniProt P35968); conditions: cited from earlier work
# human Neurons [2] = experiment: Dunn chamber migration assay (chemotaxis of immature neurons); format: cell-based; conditions: factor 200 ng/ml in outer well only; 6 h recording
# Description: FIG. 7A Dunn chamber migration assay. Schematic representation of a direct-viewing Dunn chemotaxis chamber showing the position of the inner well, the bridge, the outer well and the overlying coverslip (a) (Zicha et al., 1991 1998, Zhang et al., 2003). Adopted from Hawksley. Calculation of the forward migration index (FMI) during a 6 h recording period. FMI values can be either positive or negative, depending on the direction in which the cell is migrating (b).
# FIG. 7B Directionality analysis of cell movement using scatter plots of cell displacement (c-i). The diagrams orientate such that the position of the outer well of the chamber are vertical (y direction). Each point represents the final position of a cell at the end of the recording period of 6-h; the starting point of migration is fixed at the intersection of the two axes. As control migration of human neurons was monitored in medium only (c). For assessing chemokinesis, equal amounts of FGF2 (d) or VEGF (e) were added to both the outer and the inner wells of the chamber. Chemotaxis was tested by placing FGF2 (f) or VEGF (g) in the outer well only. Migration of human neurons treated with BFBF1120 was monitored towards a FGF2 (h) and VEGF (i) gradient.
# Chemotaxis of immature neurons was directly viewed and recorded in stable concentration gradients of FGF2 (200 ng/ml) or VEGF (200 ng/ml), respectively, with or without the addition of BIBF1120 ([…]) using a Dunn chemotaxis chamber (Allen et al., 1998 1998, Zhang et al., 2003). This device is made from a Helber bacteria counting chamber by grinding a circular well in the central platform to leave a 1 mm-wide annular bridge between the inner and the outer well. Chemoattractants added to the outer well of the chamber will diffuse across the bridge to the inner well and form a linear steady gradient within ˜30 min after loading the chamber (Zicha et al., 1991; Webb et al., 1996). To study chemotaxis, the outer well of the Dunn chamber can be filled with medium containing a chemoattractant, whereas the concentric inner well is filled with medium only. Coverslips carrying the cultured cells are inverted and placed onto the chamber. Cell locomotion is recorded through the annular bridge between the concentric inner and outer well. For assessing chemokinesis, the outer and inner wells are filled with equal concentrations of the chemoattractant. A period of 6 h was chosen to assess cell migration.
# To determine the efficiency of forward migration during the 6 h recording period, the FMI was calculated as the ratio of forward progress to the total path length (Foxman et al., 1999; Zhang et al.).
# human Neurons [3] = experiment: Transwell (Boyden chamber) migration assay of human neurons towards chemoattractant-soaked agarose beads; format: cell-based; conditions: agarose beads soaked with 30 ng/ml factor in lower well; 20 hours
# Description: FIG. 1B Migration of human Neurons monitored after 20 hours in culture towards either medium or plated neural stem cells derived from human embryonic stem cells (lt-hESNSC) or agarose beads pre-soaked with BDNF, EGF, SDF1, SCF, PDGF, FGF2 or VEGF. Bars represent percentage of migrated neurons (*P<0.03; Statistical significance was determined in relation to medium control).
# (§1) One way to study migration at the cellular level is to use microchemotaxis chambers (Boyden chambers; see FIG. 1A) (Richards & McCullough, 1984). A membrane separates the upper and the lower part of the chamber. Cells are plated on the PO/LN coated membrane that separates the upper and the lower well. Chemoattractants are introduced in the well of the lower compartment e.g., by soaking agarose beads (affi-gel blue gel) with the corresponding chemoattractants. 100 μl of the pre-soaked beads are introduced in the lower well and covered with medium before placing the upper well on top. The chemoattractant will be released over time, thus creating a chemoattractive gradient. If the agent acts as a chemoattractant, the attached cells will migrate through the filter towards the gradient of the attracting factor. Small pore sizes (8 μm) require active migration rather than passive falling of the cells through the filter.
# In this study agarose beads were soaked with either 30 ng/ml EGF, BDNF, SDF1, SCF, PDFG-AA, FGF2 or VEGF (FIG. 1B). The chemoattractive effect of NSCs on neurons was studied by plating lt-hESNSC directly in the PO/LN coated lower well before placing the upper well with the attached neurons on top. After a culture period of 20 hours, chambers were fixed with 4% PFA for 10 min. Cells that had not migrated and were still on the upper side of the membrane were scraped off, while the migrated cells on the lower side were DAPI stained and counted.
# primary tumor = conditions: cited from earlier work
# [4] = test system: immature neurons in the presence of neural stem/progenitor cells (hES-NSC70+N30); experiment: Boyden chamber assay of neural stem/progenitor cells mixed with immature neurons (hES-NSC70+N30) pre-incubated with inhibitor; format: cell-based, human; conditions: hES-NSC70+N30 pre-incubated for 30 minutes with agent
# Description: Bars represent the percentage of migrated neurons after 20 hours in culture towards medium or a chemoattractant either with or without VEGF R2-AB or endostatin treatment. Cell numbers were normalised to the number of plated neurons (*P≦0.02; statistical significance was determined in relation to the control).
# as §1, with “If the agent acts as a chemoattractant, the attached cells will migrate through the filter towards the gradient of the attracting factor. Small pore sizes (8 μm) require active migration rather than passive falling of the cells through the filter.” left out
# In this study agarose beads were soaked with either 30 ng/ml EGF, BDNF, SDF1, SCF, PDFG-AA, FGF2 or VEGF (FIG. 1B). […] Cells that had not migrated and were still on the upper side of the membrane were scraped off, while the migrated cells on the lower side were DAPI stained and counted. […]
# [5] = test system: lt-hESNSC mixed with immature neurons on hippocampal rat slice cultures; experiment: Transplantation onto rat hippocampal slice cultures (migration of human neurons from mixed grafts); format: cell-based
# Description: Using a vibroslicer, 400 μm horizontal sections were generated from the hippocampus of 9-10 day-old Wistar rats. The slices included the dentate gyrus and the entorhinal and temporal cortex (Scheffler et al., 2003; Opitz et al., 2007). They were transferred onto a polyester membrane and cultivated at 35° C., 5% CO2 and saturated air humidity in an initial culture medium containing 25% normal horse serum, which was gradually replaced after 3-5 days by chemically defined, serum-free culture medium based on DMEM/F12, N2 supplement and B27 supplement. Medium was changed every other day and 5-7 days after explantation a cell suspension of 50 000 cells in a 1 μl volume was spotted onto the entorhinal cortex of the slice using an injection device.
# For immunohistochemical analysis of slice cultures (FIG. 4), cultures were fixed in 4% paraformaldehyde for 4 hours and subsequently washed several times with PBS. Slices were permeabilized/blocked with 0.1% Triton X-100+10% FCS for 6 hours at 25° C. Incubation with primary antibody was for 16 hours at room temperature, followed by washing steps with PBS for 5 hours. Incubation with the secondary antibodies was for 2 hours at room temperature.
# To further investigate whether endostatin can also interfere with the chemoattractive effect of neural stem/progenitor cells on immature neurons in a context closer to an in vivo situation, hippocampal rat slice culture experiments were performed. HES-NSC70+N30 were pre-incubated for 30 minutes in 30 μl Cytocon™-Buffer II with either 2 μl stock solution endostatin (n=9) or with 2 μl of the solvent of endostatin (citric-phosphate buffer) as control (n=9), and then deposited on the entorhinal cortex of hippocampal slice cultures. Cultures of pure human neurons were transplanted as positive control (n=9). The slices were further cultured for 18 days after deposition of the cells. 1 μl/ml endostatin stock solution was continuously applied every day to the slice media.
# To further investigate whether BIBF1120 can also interfere with the chemoattractive effect of neural stem/progenitor cells on immature neurons, hippocampal rat slice culture experiments were performed. Lt-hESNSC mixed with purified DCX-EGFP positive neurons (30.0000 lt-hESNSC mixed with 100.000 purified neurons per μl) were pre-incubated for 30 min. in Cytocon™-Buffer II with or without 2 μg/ml BIBF1120, respectively, and then deposited on the entorhinal cortex (EC) of hippocampal slice cultures. The slices were further cultured for 7 days after deposition of the cells. 2 μg/ml BIBF1120 was continuously applied every day to the slice media.
# KDR, sequence (P35968 20-1356): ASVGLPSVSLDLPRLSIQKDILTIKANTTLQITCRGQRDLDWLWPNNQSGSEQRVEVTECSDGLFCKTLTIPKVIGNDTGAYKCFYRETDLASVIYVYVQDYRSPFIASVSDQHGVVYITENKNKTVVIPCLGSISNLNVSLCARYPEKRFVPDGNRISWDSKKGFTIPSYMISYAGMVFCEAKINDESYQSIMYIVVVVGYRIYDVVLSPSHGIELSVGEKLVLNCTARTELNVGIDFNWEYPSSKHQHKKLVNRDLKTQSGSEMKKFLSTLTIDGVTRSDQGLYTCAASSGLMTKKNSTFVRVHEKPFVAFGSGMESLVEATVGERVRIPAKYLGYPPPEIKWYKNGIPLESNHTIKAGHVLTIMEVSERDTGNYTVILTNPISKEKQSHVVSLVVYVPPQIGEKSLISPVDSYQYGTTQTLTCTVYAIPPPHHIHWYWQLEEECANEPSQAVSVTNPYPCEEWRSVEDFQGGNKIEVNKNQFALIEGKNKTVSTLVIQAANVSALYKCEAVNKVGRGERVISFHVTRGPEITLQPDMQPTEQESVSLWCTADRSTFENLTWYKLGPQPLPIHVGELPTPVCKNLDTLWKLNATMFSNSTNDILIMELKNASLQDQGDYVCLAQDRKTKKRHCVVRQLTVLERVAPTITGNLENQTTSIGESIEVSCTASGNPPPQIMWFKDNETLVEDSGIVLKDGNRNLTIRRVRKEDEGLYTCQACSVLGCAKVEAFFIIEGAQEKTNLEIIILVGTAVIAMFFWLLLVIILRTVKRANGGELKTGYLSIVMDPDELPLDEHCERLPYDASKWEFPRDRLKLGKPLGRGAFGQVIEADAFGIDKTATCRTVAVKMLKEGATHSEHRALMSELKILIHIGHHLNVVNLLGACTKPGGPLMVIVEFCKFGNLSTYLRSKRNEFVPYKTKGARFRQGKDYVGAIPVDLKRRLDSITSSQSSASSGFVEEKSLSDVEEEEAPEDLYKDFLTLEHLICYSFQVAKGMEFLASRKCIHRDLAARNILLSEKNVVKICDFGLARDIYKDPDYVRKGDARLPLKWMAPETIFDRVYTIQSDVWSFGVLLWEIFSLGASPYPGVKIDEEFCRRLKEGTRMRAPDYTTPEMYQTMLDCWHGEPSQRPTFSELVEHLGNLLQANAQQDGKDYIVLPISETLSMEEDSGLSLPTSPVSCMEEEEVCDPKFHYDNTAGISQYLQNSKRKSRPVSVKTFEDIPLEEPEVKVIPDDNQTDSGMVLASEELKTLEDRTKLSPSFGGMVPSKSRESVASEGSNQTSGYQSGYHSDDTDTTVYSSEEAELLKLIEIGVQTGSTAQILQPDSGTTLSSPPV
substance,measurement,setting,value
ATWLPPR,VEGF-induced angiogenesis,[1],abolished
same,VEGF binding to cell-displayed KDR,KDR,abolish
"FGF2: fibroblast growth factor 2, an 18 kDa protein",chemotaxis of human neurons towards gradient of the factor,human Neurons [2],neuronal chemoattractants; also recorded: clear directionality of migration
same,chemoattractive effect on neurons in the chamber migration assay,human Neurons [3],neuronal chemoattractants; also recorded: significant chemoattractive effect
"PDGF: platelet-derived growth factor, tested as neuronal chemoattractant",chemoattractive effect on neurons in the chamber migration assay,human Neurons [3],neuronal chemoattractants; also recorded: significant chemoattractive effect
SDF1: soluble factor tested as neuronal chemoattractant,chemoattractive effect on neurons in the chamber migration assay,human Neurons [3],neuronal chemoattractants
VEGF,chemotaxis of human neurons towards gradient of the factor,human Neurons [2],neuronal chemoattractants; also recorded: clear directionality of migration
same,chemoattractive effect on neurons in the chamber migration assay,human Neurons [3],neuronal chemoattractants; also recorded: significant chemoattractive effect
endostatin,toxicity during continued treatment,primary tumor; in vivo,no toxicity
same,tumor regression in size,primary tumor; recombinant E. coli-derived endostatin added at a site remote from the primary tumor,over 150 fold
same,tumor size after regression,primary tumor; recombinant E. coli-derived endostatin,less than 1 mm^3
same,migration of immature neurons towards PDGF gradient,[4]; agarose beads releasing PDGF,additionally enhanced the effect
same,migration of immature neurons towards media,"[4]; plain agarose beads, 20 hours, vs solvent control",significantly enhanced migration; also recorded: most prominent enhancement of migration
same,migration of single human neurons away from the transplantation core (horizontal),"[5]; hES-NSC70+N30, endostatin pre-incubation and daily application, day 18",up to 800 μm
same,migration horizontally over the slice compared to control population,"[5]; hES-NSC70+N30, endostatin treated, 18 days after transplantation",enhanced migration and integration capacity
same,depth reached along the z-axis,"[5]; hES-NSC70+N30, endostatin treated, day 18",350 μm
